Laboratory results taken from patent US11208412B2 (DAEGU-GYEONGBUK MEDICAL INNOVATION FOUNDATION, priority 2017, dated 2021).

Tests used:
Test in all cases: Kinase selectivity, DiscoverX scanMAX Kinase assay panel (% control)
Assay type in all cases: binding
[1] = biological target: T1, kinases of the scanMAX Kinase assay panel (Homo sapiens, UniProt Q9NWZ3); details: IRAK4; 1 uM
T1 construct: purchased DiscoverX Co. (contract measurement) scanMAX Kinase assay panel
T1 sequence (Q9NWZ3 1-460): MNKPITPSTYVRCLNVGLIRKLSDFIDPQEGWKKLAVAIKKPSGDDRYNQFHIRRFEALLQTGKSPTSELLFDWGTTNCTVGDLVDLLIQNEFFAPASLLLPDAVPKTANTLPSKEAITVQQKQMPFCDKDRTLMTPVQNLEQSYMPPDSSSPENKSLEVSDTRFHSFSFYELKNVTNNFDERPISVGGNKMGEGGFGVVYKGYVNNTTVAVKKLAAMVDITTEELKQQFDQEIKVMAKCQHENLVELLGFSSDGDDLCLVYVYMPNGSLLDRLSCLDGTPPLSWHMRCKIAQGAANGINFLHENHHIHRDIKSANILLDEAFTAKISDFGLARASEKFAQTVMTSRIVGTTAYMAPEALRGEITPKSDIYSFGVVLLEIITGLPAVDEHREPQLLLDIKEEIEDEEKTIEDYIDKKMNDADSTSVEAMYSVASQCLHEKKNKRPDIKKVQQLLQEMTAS
Method in brief: (§1)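 Binding-panel profiling at one concentration, 1 uM in DMSO; values are % of DMSO control after subtracting the positive-control floor. Less than 35% means activity on that kinase.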

[2] = biological target: T2, kinases of the scanMAX Kinase assay panel (Homo sapiens, UniProt Q12866); details: MERTK; 1 uM
T2 construct: purchased DiscoverX Co. (contract measurement) scanMAX Kinase assay panel
T2 sequence (Q12866 21-999): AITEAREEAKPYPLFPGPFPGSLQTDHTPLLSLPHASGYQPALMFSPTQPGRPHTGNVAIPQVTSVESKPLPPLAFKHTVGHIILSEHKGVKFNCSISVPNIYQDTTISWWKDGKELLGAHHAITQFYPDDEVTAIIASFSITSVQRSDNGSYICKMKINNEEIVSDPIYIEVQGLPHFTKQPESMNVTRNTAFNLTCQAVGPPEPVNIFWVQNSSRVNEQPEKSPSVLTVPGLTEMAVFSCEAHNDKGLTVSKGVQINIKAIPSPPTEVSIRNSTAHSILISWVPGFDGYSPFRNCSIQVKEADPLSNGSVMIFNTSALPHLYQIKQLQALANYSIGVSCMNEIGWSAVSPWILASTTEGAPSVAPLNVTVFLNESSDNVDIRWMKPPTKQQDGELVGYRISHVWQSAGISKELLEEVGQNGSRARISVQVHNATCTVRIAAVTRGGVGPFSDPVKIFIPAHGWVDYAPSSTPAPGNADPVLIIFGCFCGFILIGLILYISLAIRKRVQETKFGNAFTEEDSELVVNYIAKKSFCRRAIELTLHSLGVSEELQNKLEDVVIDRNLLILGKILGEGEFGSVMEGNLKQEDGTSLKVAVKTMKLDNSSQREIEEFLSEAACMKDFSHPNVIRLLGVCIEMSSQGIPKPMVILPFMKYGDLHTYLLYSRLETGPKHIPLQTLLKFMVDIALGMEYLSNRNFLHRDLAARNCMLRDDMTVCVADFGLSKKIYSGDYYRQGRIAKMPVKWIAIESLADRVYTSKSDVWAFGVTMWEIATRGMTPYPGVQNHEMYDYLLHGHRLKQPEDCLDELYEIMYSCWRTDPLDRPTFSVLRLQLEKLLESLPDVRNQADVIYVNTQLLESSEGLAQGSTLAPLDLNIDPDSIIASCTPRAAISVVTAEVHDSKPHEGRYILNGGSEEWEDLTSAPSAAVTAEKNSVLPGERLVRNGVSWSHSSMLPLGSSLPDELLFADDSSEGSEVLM
Method in brief: as §1

[3] = biological target: T3, kinases of the scanMAX Kinase assay panel (Homo sapiens, UniProt Q16566); details: CAMK4; 1 uM
T3 construct: purchased DiscoverX Co. (contract measurement) scanMAX Kinase assay panel
T3 sequence (Q16566 1-473): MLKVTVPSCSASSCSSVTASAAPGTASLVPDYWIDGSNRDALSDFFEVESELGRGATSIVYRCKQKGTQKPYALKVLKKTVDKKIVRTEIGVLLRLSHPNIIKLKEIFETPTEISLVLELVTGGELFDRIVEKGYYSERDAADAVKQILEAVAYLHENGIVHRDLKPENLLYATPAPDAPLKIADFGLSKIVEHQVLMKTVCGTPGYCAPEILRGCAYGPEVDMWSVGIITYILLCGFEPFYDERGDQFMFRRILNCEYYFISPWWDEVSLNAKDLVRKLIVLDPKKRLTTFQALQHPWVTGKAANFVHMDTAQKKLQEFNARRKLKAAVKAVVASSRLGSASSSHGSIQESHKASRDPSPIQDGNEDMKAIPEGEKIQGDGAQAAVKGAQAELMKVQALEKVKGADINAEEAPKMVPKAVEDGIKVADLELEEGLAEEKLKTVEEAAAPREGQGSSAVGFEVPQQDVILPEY
Method in brief: as §1

[4] = biological target: T4, kinases of the scanMAX Kinase assay panel (Homo sapiens, UniProt P49761); details: CLK3; 1 uM
T4 construct: purchased DiscoverX Co. (contract measurement) scanMAX Kinase assay panel
Method in brief: as §1

[5] = biological target: T5, kinases of the scanMAX Kinase assay panel (Homo sapiens, UniProt P42338); details: PIK3CB; 1 uM
T5 construct: purchased DiscoverX Co. (contract measurement) scanMAX Kinase assay panel
Method in brief: as §1

[6] = biological target: T6, kinases of the scanMAX Kinase assay panel (Homo sapiens, UniProt Q13164); details: ERK5; 1 uM
T6 construct: purchased DiscoverX Co. (contract measurement) scanMAX Kinase assay panel
Method in brief: as §1

T5 sequence (P42338 whole entry): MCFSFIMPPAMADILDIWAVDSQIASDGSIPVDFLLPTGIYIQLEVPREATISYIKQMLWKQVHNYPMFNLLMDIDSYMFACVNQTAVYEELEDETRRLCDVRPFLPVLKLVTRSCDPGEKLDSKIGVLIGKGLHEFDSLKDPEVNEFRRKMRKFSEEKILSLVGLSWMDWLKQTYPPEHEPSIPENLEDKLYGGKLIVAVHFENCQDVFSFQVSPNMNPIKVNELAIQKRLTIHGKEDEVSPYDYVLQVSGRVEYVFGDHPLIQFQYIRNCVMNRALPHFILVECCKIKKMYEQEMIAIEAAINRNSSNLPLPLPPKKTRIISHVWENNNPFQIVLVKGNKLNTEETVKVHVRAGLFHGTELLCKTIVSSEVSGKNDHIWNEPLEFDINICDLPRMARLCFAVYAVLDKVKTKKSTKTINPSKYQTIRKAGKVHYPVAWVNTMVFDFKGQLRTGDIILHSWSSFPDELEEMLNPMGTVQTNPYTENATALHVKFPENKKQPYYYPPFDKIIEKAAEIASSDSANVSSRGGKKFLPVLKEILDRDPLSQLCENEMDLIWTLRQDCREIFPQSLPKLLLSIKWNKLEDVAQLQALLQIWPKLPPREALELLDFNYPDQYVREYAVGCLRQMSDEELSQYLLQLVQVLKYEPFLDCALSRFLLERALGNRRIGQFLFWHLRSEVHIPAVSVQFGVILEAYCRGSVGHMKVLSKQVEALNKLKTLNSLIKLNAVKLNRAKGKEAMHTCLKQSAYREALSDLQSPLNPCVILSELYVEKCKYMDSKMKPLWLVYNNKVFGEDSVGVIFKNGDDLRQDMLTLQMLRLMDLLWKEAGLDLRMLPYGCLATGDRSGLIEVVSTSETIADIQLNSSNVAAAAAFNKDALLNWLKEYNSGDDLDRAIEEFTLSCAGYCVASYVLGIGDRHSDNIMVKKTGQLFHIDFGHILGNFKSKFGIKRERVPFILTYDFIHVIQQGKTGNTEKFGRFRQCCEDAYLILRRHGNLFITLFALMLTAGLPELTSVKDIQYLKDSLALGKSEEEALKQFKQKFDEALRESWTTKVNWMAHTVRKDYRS
T6 sequence (Q13164 whole entry): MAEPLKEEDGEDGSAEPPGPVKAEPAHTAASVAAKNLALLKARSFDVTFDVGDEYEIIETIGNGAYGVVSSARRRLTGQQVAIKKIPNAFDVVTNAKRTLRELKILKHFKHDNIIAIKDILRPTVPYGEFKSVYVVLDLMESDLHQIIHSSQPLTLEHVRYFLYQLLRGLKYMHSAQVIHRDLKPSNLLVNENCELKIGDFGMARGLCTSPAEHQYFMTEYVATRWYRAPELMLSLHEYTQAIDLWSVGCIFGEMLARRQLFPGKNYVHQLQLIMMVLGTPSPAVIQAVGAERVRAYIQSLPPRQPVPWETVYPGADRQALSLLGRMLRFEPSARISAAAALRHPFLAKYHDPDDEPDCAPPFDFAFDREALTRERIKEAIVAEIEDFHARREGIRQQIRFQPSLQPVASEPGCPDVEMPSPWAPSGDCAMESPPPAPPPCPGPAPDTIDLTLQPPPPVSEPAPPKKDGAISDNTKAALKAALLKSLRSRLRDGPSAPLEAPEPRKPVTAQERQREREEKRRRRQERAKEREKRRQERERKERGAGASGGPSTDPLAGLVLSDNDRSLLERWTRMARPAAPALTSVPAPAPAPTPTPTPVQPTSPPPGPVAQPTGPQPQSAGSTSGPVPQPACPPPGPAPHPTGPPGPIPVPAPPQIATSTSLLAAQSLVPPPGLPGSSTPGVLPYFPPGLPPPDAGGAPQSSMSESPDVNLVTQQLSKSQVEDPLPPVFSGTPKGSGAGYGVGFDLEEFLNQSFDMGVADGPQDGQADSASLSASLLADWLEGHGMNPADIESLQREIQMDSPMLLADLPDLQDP
T4 sequence (P49761 whole entry): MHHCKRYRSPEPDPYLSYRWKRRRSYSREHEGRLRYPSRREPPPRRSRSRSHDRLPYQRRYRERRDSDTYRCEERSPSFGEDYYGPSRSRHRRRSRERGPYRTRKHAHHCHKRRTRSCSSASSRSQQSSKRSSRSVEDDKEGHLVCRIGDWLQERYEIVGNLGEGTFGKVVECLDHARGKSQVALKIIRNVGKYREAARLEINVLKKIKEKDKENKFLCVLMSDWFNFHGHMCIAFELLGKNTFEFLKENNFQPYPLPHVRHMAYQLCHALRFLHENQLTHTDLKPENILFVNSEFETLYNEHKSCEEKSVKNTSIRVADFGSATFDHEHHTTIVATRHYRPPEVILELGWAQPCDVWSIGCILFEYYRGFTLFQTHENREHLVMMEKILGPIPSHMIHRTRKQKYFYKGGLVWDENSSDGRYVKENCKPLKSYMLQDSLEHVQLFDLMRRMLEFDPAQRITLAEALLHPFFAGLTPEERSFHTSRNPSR

SMILES	remaining binding at 1 µM [1] [%]	remaining binding at 1 µM [2] [%]	remaining binding at 1 µM [3] [%]	remaining binding at 1 µM [4] [%]	remaining binding at 1 µM [5] [%]	remaining binding at 1 µM [6] [%]
CNc1nc(Nc2ccc(C(=O)N3CCOCC3)cc2OC)nc2[nH]cc(C#N)c12 [Example 1, 2-((2-methoxy-4-(morpholine-4-carbonyl)phenyl)amino)-4-(methylamino)-7H-pyrrolo[2,3-d]pyrimidine-5-carbonitrile]	92	96	99	70	96	72
CC1(Nc2nc(Nc3cnn([C@H]4CCN(C5COC5)C[C@@H]4F)c3Cl)nc3[nH]cc(C#N)c23)CC1 [Example 52, 2-((5-chloro-1-((3S,4S)-3-fluoro-1-(oxetane-3-yl)piperidine-4-yl)-1H-pyrazole-4-yl)amino)((1-methylcyclopropyl)amino)-7H-pyrrolo[2,3-d]pyrimidine-5-carbonitrile]	0.2	0	55	27	100	13
CCNc1nc(Nc2ccc(C(=O)N3CCC(N4CCOCC4)CC3)cc2OC)nc2[nH]cc(C(F)(F)F)c12 [Example 104, (4-((4-(ethylamino)-5-(trifluoromethyl)-7H-pyrrolo[2,3-d]pyrimidine-2-yl)amino)-3-methoxyphenyl)(4-morpholinopiperidine-1-yl)methanone]	100	93	27	4	92	18
